Test results taken from US20080300253A1, “TREATMENT OF INFLAMMATORY DISORDERS WITH PRAZIQUANTEL” (Gencross, Inc., priority 2005, published 2008).
Like-named read-outs stand apart in the source and are kept apart here.

Columns and labels:
TNF-α [1] = assay: TNF-α amount in LPS-treated differentiated THP-1 cells (Western blotting); format: cell-based, human
Method: (§1) The THP-1 human monocytic cell line was treated with 200 nM phorbol myristate acetate (PMA) for 24 hours, resulting in differentiation into functional macrophages. Differentiated THP-1 cells were treated with 2 μg/ml lipopolysaccharide (LPS), and total proteins or nuclear proteins were isolated 0.5, 1, 2, and 3 hours later. In some differentiated THP-1 cell cultures, a combination of LPS and 100 nM praziquantel was added prior to isolation of total and nuclear proteins at the same time points. Both total protein and nuclear protein were quantitated by Western blotting. […] Thus, praziquantel inhibits LPS-induced NF-κB activity by preventing its translocation to the nucleus where it exerts its transcriptional activation effects. Neither α-tubulin nor lamin B protein was affected by either LPS or praziquantel treatment (FIG. 1).

p38 [2] = assay: Phosphorylated p38 in LPS-treated differentiated THP-1 cells (Western blotting); format: cell-based, human; conditions: 2 μg/ml LPS + 100 nM praziquantel vs LPS alone
Method: as §1

ATF-2 [3] = assay: Phosphorylated ATF-2 in LPS-treated differentiated THP-1 cells (Western blotting); format: cell-based, human; conditions: 2 μg/ml LPS + 100 nM praziquantel vs LPS alone
Method: as §1

IKK α/β = assay: Phosphorylated IKK α/β in LPS-treated differentiated THP-1 cells (Western blotting); format: cell-based, human; conditions: 2 μg/ml LPS + 100 nM praziquantel vs LPS alone
Method: as §1

NF-κB = NF-κB total level and nuclear translocation in LPS-treated differentiated THP-1 cells (Western blotting); format: cell-based, human; conditions: 2 μg/ml LPS + 100 nM praziquantel
Method: as §1

TNF-α [4] = assay: Serum TNF-α (ELISA) in acute mouse sepsis model (LPS/D-galactosamine); format: in vivo, C57BL/6 mice; conditions: 12.5, 25 or 50 mg/kg oral, 30 minutes prior to LPS/D-galactosamine
[5] = test system: LPS/D-galactosamine-induced acute sepsis; assay: Survival of LPS/D-galactosamine-treated mice (acute sepsis); format: in vivo, C57BL6 mice
Method: An acute mouse in vivo sepsis model was used to determine the ability of praziquantel to reduce TNF-α levels. C57BL/6 mice were used which were 7 to 8 weeks old and weighed 25 to 30 g. Fodder (Daehan Biolink) and water were administered ad libitum, and the temperature and relative humidity of the nursery cage were maintained at 21-24° C. and 40-80%, respectively. In addition, the nursery cage light was controlled to switch between day and night every 12 hours. Eight to ten mice were assigned to each experimental group. Each mouse was intraperitoneally (ip) administered 8 ng LPS (Sigma Aldrich) and 8 mg D-galactosamine (SIGMA), each dissolved in 100 μl distilled water, to induce acute sepsis. In order to investigate the effect of praziquantel on TNF-α levels in blood, praziquantel was orally administered to each experimental group at dosages of 12.5 mg/kg, 25 mg/kg or 50 mg/kg, 30 minutes prior to treatment with LPS/D-galactosamine. The blood was sampled 1, 3 and 5 hours after treatment with praziquantel. Serum was isolated from the sampled blood, and the amount of TNF-α was measured by ELISA (R&D Systems, Minneapolis, Minn.).
Female C57BL6 mice (8-10 per experimental group) were treated as described above to induce acute sepsis, and the same doses of praziquantel were administered 30 minutes prior to treatment with LPS/D-galactosamine.

p38 kinase = p38 kinase amount and phosphorylation in blood mononuclear cells of LPS/D-galactosamine-treated mice (western blotting); format: in vivo; conditions: 50 mg/kg oral 30 minutes prior to LPS/D-galactosamine; blood 3 hours later
Method: (§2) Mice were orally administered 50 mg/kg praziquantel 30 minutes prior to ip injection of 8 ng LPS and 8 mg D-galactosamine. Blood samples were taken 3 hours later, and mononuclear cells were isolated using Histopaque (Sigma Aldrich, cat #1080). Protein levels and their phosphorylation states were then determined by western blotting.

ATF-2 [6] = assay: ATF-2 phosphorylation in blood mononuclear cells of LPS/D-galactosamine-treated mice (western blotting); format: in vivo; conditions: 50 mg/kg oral 30 minutes prior to LPS/D-galactosamine; blood 3 hours later
Method: as §2

IKK-α = IKK-α phosphorylation in blood mononuclear cells of LPS/D-galactosamine-treated mice (western blotting); format: in vivo; conditions: 50 mg/kg oral 30 minutes prior to LPS/D-galactosamine; blood 3 hours later
Method: as §2, with “blotting. […] The amount of IKK-α and IKK-β proteins and their phosphorylation states were also examined. […] IKK-α and IKK-β are known to phosphorylate IκB, and phosphorylated IκB is degraded by a protease.” for “blotting.”

IKK-β = IKK-β phosphorylation in blood mononuclear cells of LPS/D-galactosamine-treated mice (western blotting); format: in vivo; conditions: 50 mg/kg oral 30 minutes prior to LPS/D-galactosamine; blood 3 hours later
Method: as §2, with “blotting. […] The amount of IKK-α and IKK-β proteins and their phosphorylation states were also examined. […] IKK-α and IKK-β are known to phosphorylate IκB, and phosphorylated IκB is degraded by a protease.” for “blotting.”

IκB = IκB amount and phosphorylation in blood mononuclear cells of LPS/D-galactosamine-treated mice (western blotting); format: in vivo; conditions: 50 mg/kg oral 30 minutes prior to LPS/D-galactosamine; blood 3 hours later
Method: as §2, with “blotting. […] The amount of IKK-α and IKK-β proteins and their phosphorylation states were also examined. […] IKK-α and IKK-β are known to phosphorylate IκB, and phosphorylated IκB is degraded by a protease.” for “blotting.”

TNF-α [7] = assay: Mouse collagen-induced arthritis model: serum TNF-α; format: in vivo, DBA/1 mice; conditions: 50 mg/kg oral suspension in saline, once or twice a day for three weeks; vs vehicle
Method: (§3) Male DBA/1 mice, obtained from the Jackson Laboratory, are maintained in groups of three to five in polycarbonate cages and fed standard mouse chow and water ad libitum. The environment is made specifically pathogen-free. Mice are immunized with bovine type II collagen (CII), at 8 to 12 weeks of age, as described previously (Arthritis Rheum. 2002, 46:1109, 2002; J. Immunol., 5846, 2005). Briefly, CII is dissolved in 0.05N acetic acid at 2 mg/ml, and emulsified (1:1 ratio) with complete Freund's adjuvant (CFA) at 4° C. The mice receive 0.1 ml of the emulsion, containing 100 μg of CII, in the base of the tail as a primary immunization. Booster injections are given into the footpad with 50 μg of CII, similarly dissolved and emulsified with CFA (1:1), 14 days after the primary immunization. CIA develops as early as 3 wk, peaks at 5-7 wk, and thereafter spontaneously resolves at 10 wk. Mice are divided into two groups. One group is administered vehicle (saline), and the other group is administered an oral suspension of 50 mg/kg praziquantel in saline starting 2 weeks after the CII booster injection. Praziquantel administration is continued once or twice a day for three weeks after the initial administration.
(§4) TNF-α and p38 levels in blood are then assayed as described above, and the incidence and severity of arthritis in the two groups of mice are determined by visual inspection.

p38 [8] = assay: Mouse collagen-induced arthritis model: serum p38; format: in vivo, DBA/1 mice; conditions: 50 mg/kg oral suspension in saline, once or twice a day for three weeks; vs vehicle
Method: as §3, §4

[9] = test system: collagen-induced arthritis; assay: Mouse collagen-induced arthritis model: severity of arthritis by visual inspection; format: in vivo, DBA/1 mice; conditions: 50 mg/kg oral suspension in saline, once or twice a day for three weeks; vs vehicle
Method: as §3, §4

[10] = rats; cited from earlier work
[11] = dogs dosed with 100 mg/kg; cited from earlier work
[12] = cats dosed with 100 mg/kg; cited from earlier work

O=C(C1CCCCC1)N1CC(=O)N2CCc3ccccc3C2C1 (stereo not drawn) [Praziquantel, 2-(cyclohexylcarbonyl)-1,2,3,6,7,11β-hexahydro-4H-pyrazino[2,1-α]isoquinoline-4-one]
amount of TNF-α (TNF-α [1]; 2 μg/ml LPS + 100 nM praziquantel vs LPS alone, one, two and three hours): much less TNF-α | amount of TNF-α (TNF-α [1]; 2 μg/ml LPS + 100 nM praziquantel, two and three hour time points): barely detectable | active (phosphorylated) form of p38 (p38 [2]): Significant reductions | active (phosphorylated) form of ATF-2 (ATF-2 [3]): Significant reductions | active (phosphorylated) form of IKK α/β (IKK α/β): Significant reductions | total NF-κB levels (NF-κB): not affected | translocation of NF-κB to the nucleus (NF-κB; nuclear fraction): did not occur | amount of TNF-α in blood serum (TNF-α [4]): dose-dependent decrease | Survival (# of mice) ([5]; 12.5 mg/kg oral, 0 h): (30/30) | Survival rate ([5]; 12.5 mg/kg oral, 0 h): 100% | Survival (# of mice) ([5]; 12.5 mg/kg oral, 5 h): (30/30) | Survival rate ([5]; 12.5 mg/kg oral, 5 h): 100% | Survival (# of mice) ([5]; 12.5 mg/kg oral, 6 h): (26/30) | Survival rate ([5]; 12.5 mg/kg oral, 6 h): 86% | Survival (# of mice) ([5]; 12.5 mg/kg oral, 7 h): (17/30) | Survival rate ([5]; 12.5 mg/kg oral, 7 h): 57% | Survival (# of mice) ([5]; 12.5 mg/kg oral, 8 h): (15/30) | Survival rate ([5]; 12.5 mg/kg oral, 8 h): 50% | Survival (# of mice) ([5]; 12.5 mg/kg oral, 9 h): (13/30) | Survival rate ([5]; 12.5 mg/kg oral, 9 h): 43% | Survival (# of mice) ([5]; 12.5 mg/kg oral, 10 h): (4/30) | Survival rate ([5]; 12.5 mg/kg oral, 10 h): 14% | Survival (# of mice) ([5]; 12.5 mg/kg oral, 11 h): (4/30) | Survival rate ([5]; 12.5 mg/kg oral, 11 h): 14% | Survival (# of mice) ([5]; 12.5 mg/kg oral, 12 h): (4/30) | Survival rate ([5]; 12.5 mg/kg oral, 12 h): 14% | Survival (# of mice) ([5]; 12.5 mg/kg oral, >24 h): (4/30) | Survival rate ([5]; 12.5 mg/kg oral, >24 h): 14% | Survival (# of mice) ([5]; 25 mg/kg oral, 0 h): (30/30) | Survival rate ([5]; 25 mg/kg oral, 0 h): 100% | Survival (# of mice) ([5]; 25 mg/kg oral, 5 h): (30/30) | Survival rate ([5]; 25 mg/kg oral, 5 h): 100% | Survival (# of mice) ([5]; 25 mg/kg oral, 6 h): (28/30) | Survival rate ([5]; 25 mg/kg oral, 6 h): 93% | Survival (# of mice) ([5]; 25 mg/kg oral, 7 h): (21/30) | Survival rate ([5]; 25 mg/kg oral, 7 h): 71% | Survival (# of mice) ([5]; 25 mg/kg oral, 8 h): (21/30) | Survival rate ([5]; 25 mg/kg oral, 8 h): 71% | Survival (# of mice) ([5]; 25 mg/kg oral, 9 h): (21/30) | Survival rate ([5]; 25 mg/kg oral, 9 h): 71% | Survival (# of mice) ([5]; 25 mg/kg oral, 10 h): (21/30) | Survival rate ([5]; 25 mg/kg oral, 10 h): 71% | Survival (# of mice) ([5]; 25 mg/kg oral, 11 h): (21/30) | Survival rate ([5]; 25 mg/kg oral, 11 h): 71% | Survival (# of mice) ([5]; 25 mg/kg oral, 12 h): (19/30) | Survival rate ([5]; 25 mg/kg oral, 12 h): 64% | Survival (# of mice) ([5]; 25 mg/kg oral, >24 h): (19/30) | Survival rate ([5]; 25 mg/kg oral, >24 h): 64% | Survival (# of mice) ([5]; 50 mg/kg oral, 0 h): (30/30) | Survival rate ([5]; 50 mg/kg oral, 0 h): 100% | Survival (# of mice) ([5]; 50 mg/kg oral, 5 h): (30/30) | Survival rate ([5]; 50 mg/kg oral, 5 h): 100% | Survival (# of mice) ([5]; 50 mg/kg oral, 6 h): (28/30) | Survival rate ([5]; 50 mg/kg oral, 6 h): 93% | Survival (# of mice) ([5]; 50 mg/kg oral, 7 h): (28/30) | Survival rate ([5]; 50 mg/kg oral, 7 h): 93% | Survival (# of mice) ([5]; 50 mg/kg oral, 8 h): (28/30) | Survival rate ([5]; 50 mg/kg oral, 8 h): 93% | Survival (# of mice) ([5]; 50 mg/kg oral, 9 h): (28/30) | Survival rate ([5]; 50 mg/kg oral, 9 h): 93% | Survival (# of mice) ([5]; 50 mg/kg oral, 10 h): (28/30) | Survival rate ([5]; 50 mg/kg oral, 10 h): 93% | Survival (# of mice) ([5]; 50 mg/kg oral, 11 h): (28/30) | Survival rate ([5]; 50 mg/kg oral, 11 h): 93% | Survival (# of mice) ([5]; 50 mg/kg oral, 12 h): (28/30) | Survival rate ([5]; 50 mg/kg oral, 12 h): 93% | Survival (# of mice) ([5]; 50 mg/kg oral, >24 h): (28/30) | Survival rate ([5]; 50 mg/kg oral, >24 h): 93% | amount of p38 protein (p38 kinase): did not change | phosphorylation of p38 kinase (p38 kinase): inhibited | phosphorylation of ATF-2 (ATF-2 [6]): inhibited | phosphorylation of IKK-α (IKK-α): inhibited | phosphorylation of IKK-β (IKK-β): inhibited | amount of IκB protein (IκB): did not decrease | phosphorylation of IκB (IκB): inhibited | serum levels of TNF-α (TNF-α [7]): significantly reduced | serum levels of p38 (p38 [8]): significantly reduced | severity of arthritis [9]: greatly reduced | LD50 [10]: 2,000-3,000 mg/kg | adverse effects [11]: No adverse effects | adverse effects [12]: No adverse effects
